“And” between values parts separate entries of the source, which are not always exact repeats. Identical values can stand only once.
How the values were obtained:
HEK293 cells = assay: RSK signaling immunoblot in HEK293 cells; type: cell-based, human
Method: HEK293 cells (Invitrogen, R75007) were seeded at a density of 500,000 cells per well in six-well cell culture plates (Corning Incorporated Costar #3516) in Dulbecco’s modified Eagle medium (DMEM) high-glucose + GlutaMAX Supplement, pyruvate (Thermo Fisher Scientific, catalog no. 31966-021) containing penicillin G (100 U/ml), streptomycin (100 μg/ml), and 10% (v/v) FBS. Once attached, the next day, the media were changed to serum-free and the cells were starved for 16 hours followed by compound treatment with BAY-3827, BI-D1870 (MedChemExpress, #HY-10510) ± 10 μM MK-2206 dihydrochloride (MedChemExpress, #HY-10358) with 30 min incubation at 37°C followed by coincubation with […] (MedChemExpress, #HY-18739) or vehicle for additional 30 min with final assay DMSO concentration of 0.13%. All cell lines used here were tested monthly for mycoplasma and tested negative.
Following compound treatment, the cells were washed with room temperature PBS and lysed on ice with the addition of lysis buffer [50 mM tris-HCl (pH 7.5), 150 mM NaCl, 1 mM EDTA, 1 mM EGTA, 0.27 M sucrose, 1% w/v Triton X-100, 20 mM glycerol-2 phosphate disodium, 50 mM NaF, and 5 mM Na4P2O7.10 H2O] containing proteases and phosphatase inhibitors [0.5 mM phenylmethylsulfonyl fluoride (PMSF), 1 mM benzamidine HCl, leupeptin (1 μg/ml), pepstatin A (1 μg/ml), 1 μM microcystin-LR, 1 mM Na3VO4, and 1 mM DTT]. Lysates were centrifuged at 10,000g, 4°C for 10 min, and protein concentration of the supernatant was determined with the Pierce Bradford Protein Assay Kit (Thermo Fisher Scientific, #23200) and read on the Hidex Plate Reader (software version 0.5.64.0). Samples were prepared in Laemmli sample buffer (tris 200 mM, 8% SDS, EDTA 2 mM, and 40% glycerol) supplemented with 10% DTT and boiled for 5 min at 100°C. Ten micrograms of protein per sample was run on a Criterion tris-glycine polyacrylamide gel (Bio-Rad, #5678095) and transferred to a nitrocellulose membrane. For cell signaling experiments in HEK293 cells, the samples were run on a Criterion TGX stain-free precast gel (Bio-Rad, catalog no. 5678085) with transfer to a polyvinylidene difluoride membrane performed in Bio-Rad Criterion blotter (#1704071) using tris-glycine transfer buffer (Bio-Rad, #1610734) following the manufacturer’s instructions. The membranes were probed at 4°C overnight in a 4% BSA TBS-T solution containing 0.02% sodium azide with the following antibodies where appropriate: Phospho-ACC (Ser^79) (1:1000, Cell Signaling Technology, #3661S), ACC (C83B10) (1:1000, Cell Signaling Technology, #3676S), phospho-Raptor (Ser^792) (1:1000, Cell Signaling Technology, #2083S), Raptor (24C12) (1:1000, Cell Signaling Technology, #2280S), GSK3αβ (1:2000, Sigma-Aldrich, #04-903), phospho-GSK3αβ (Ser^21/9) (D17D2) (1:1000, Cell Signaling Technology, #8566S), ERK1/2 (137F5) (1:1000, Cell Signaling Technology, #4695), phospho-ERK1/2 (Thr^202/Tyr^204) (D13.14.4E) (1:1000, Cell Signaling Technology, #4370), phospho-AMPKα (Thr^172) (40H9) (1:1000, Cell Signaling Technology, #2535S), AMPKα (1:1000, Cell Signaling Technology, #2532S), anti–glyceraldehyde-3-phosphate dehydrogenase antibody (1:5000, Cell Signaling Technology, #G8795), and vinculin (1:1000, Cell Signaling Technology, #13901). Membranes were scanned using the Odyssey Fc LiCor system (exposure time, 30 s) with densitometry analysis performed using LiCor Image Studio Lite normalizing to control loading protein. Figures were made using GraphPad Prism v10.

[1] = system: AMPKα1α2+/+ (control) primary hepatocytes; assay: RNA-seq transcriptome analysis of primary hepatocytes; type: cell-based, mouse
Method: Primary hepatocytes were pretreated for 15 min with BAY-3827 5 μM at 37°C in MEM-199 supplemented with penicillin G (100 U/ml), streptomycin ([…]), and 100 nM dexamethasone followed by addition of MK-8722 10 μM treatment. Six hours posttreatment, the cells were washed twice with room-temperature PBS. RNA was isolated using QIAwave RNAeasy kit (catalog no. 74104) with on-column deoxyribonuclease (DNAse) treatment using Qiagen RNase-free DNase set (catalog no. 79256) following the manufacturer’s protocol. Messenger RNA-seq was performed by the Single-Cell Omics platform at the Novo Nordisk Foundation Center for Basic Metabolic Research. Libraries were prepared using the Universal Plus mRNA-seq protocol (Tecan) as recommended by the manufacturer. Libraries were quantified with NuQuant using the CLARIOstar Plate Reader (BMG Labtech), quality checked using a TapeStation instrument (Agilent Technologies), and subjected to 52–base pair paired-end sequencing on a NovaSeq 6000 (Illumina). The sequencing analysis pipeline nf-core ([69]) was used, with alignment and quantification selection of STAR and Salmon, and mouse GRCm38 set as the reference genome. Unique molecular identifier (UMI)-based deduplication was performed using UMI tools, and sorting and index alignments were completed with SAMtools as part of the pipeline. Differential expression analysis was carried out using the R package edgeR ([70]) and a batch-effect removal was performed in limma ([71]) to account for the variability induced by two mice (291 + 295) from which cells with the same treatments had been pooled to obtain the required cell confluence. Venn diagrams were produced using the R package ggvenn ([72]). […] Heatmaps of log2 counts per million normalized counts were produced using R package pheatmap ([73]). GO enrichment analysis was performed using the R package clusterProfiler version 4.6.2 ([74]) setting FDR < 0.05 with reference organism specified as mouse, pAdjustMethod was set to BH, and ontology category set to biological process, with a qvalueCutoff of 0.05. Visualization analyses were conducted in RStudio version 4.2.0 ([75]).

CCc1ccccc1C(=O)Nc1n[nH]c2c(C)c(F)c(C3C(C#N)=C(C)N(C)C(C)=C3C#N)cc12 [BAY-3827, N-[5-(3,5-dicyano-1,2,6-trimethyl-4H-pyridin-4-yl)-6-fluoro-7-methyl-1H-indazol-3-yl]-2-ethylbenzamide]
PMA-stimulated pGSK3αβ (surrogate of RSK activity) (HEK293 cells; 10 μM, in the presence of MK-2206 (10 μM)): inhibited to the same extent | ACC1 phosphorylation (HEK293 cells; serum-starved HEK293, 1 and 10 μM): dose-dependent reduction | LogFC ADORA2B ([1]; 5 μM + MK-8722 versus MK-8722): −1.3062 | LogFC AVPR1A ([1]; 5 μM + MK-8722 versus MK-8722): −1.708 | LogFC EHHADH ([1]; 5 μM + MK-8722 versus MK-8722): −1.5955 | LogFC HAL ([1]; 5 μM + MK-8722 versus MK-8722): −1.348 | LogFC HMGCR ([1]; 5 μM + MK-8722 versus MK-8722): −0.1621 | LogFC HPGD ([1]; 5 μM + MK-8722 versus MK-8722): −1.745 | LogFC LIPE ([1]; 5 μM + MK-8722 versus MK-8722): −0.2816 | LogFC LPIN2 ([1]; 5 μM + MK-8722 versus MK-8722): −0.5277 | LogFC PFKFB2 ([1]; 5 μM + MK-8722 versus MK-8722): −0.5421 | LogFC PLIN5 ([1]; 5 μM + MK-8722 versus MK-8722): −1.3 | LogFC SP1 ([1]; 5 μM + MK-8722 versus MK-8722): −0.4397 | LogFC TBC1D15 ([1]; 5 μM + MK-8722 versus MK-8722): −0.4895 | LogFC TBC1D17 ([1]; 5 μM + MK-8722 versus MK-8722): −0.5598 | MK-8722–stimulated AMPK-dependent genes down-regulated ([1]; 5 μM + MK-8722 versus MK-8722): ~ 30% and 30.1% | logFC CALCOCO1 (RSK2 gene) ([1]; 5 μM + MK-8722 versus MK-8722): -0.7893 | logFC CENPE (RSK1 gene) ([1]; 5 μM + MK-8722 versus MK-8722): -1.28 | logFC CENPI (RSK1 gene) ([1]; 5 μM + MK-8722 versus MK-8722): -0.6534 | logFC CENPW (RSK1 gene) ([1]; 5 μM + MK-8722 versus MK-8722): -0.4735 | logFC DSN1 (RSK1 gene) ([1]; 5 μM + MK-8722 versus MK-8722): -0.789 | logFC FN1 (RSK1 gene) ([1]; 5 μM + MK-8722 versus MK-8722): -0.2178 | logFC MASTL (RSK1 gene) ([1]; 5 μM + MK-8722 versus MK-8722): -0.8494 | logFC NEK2 (RSK1 gene) ([1]; 5 μM + MK-8722 versus MK-8722): -1.199 | logFC SPC25 (RSK1 gene) ([1]; 5 μM + MK-8722 versus MK-8722): -0.6826 | logFC STAT5B ([1]; 5 μM + MK-8722 versus MK-8722): -0.6006 | differentially expressed genes that are down-regulated ([1]; 5 μM + MK-8722 versus MK-8722, 2511 significant genes): 61.2% | PPARGC1A gene counts ([1]; 5 μM + MK-8722 versus MK-8722 alone): significantly reduced

From paper PMC12372887, “Mechanism and cellular actions of the potent AMPK inhibitor BAY-3827” (Science Advances, 2025)
